Experimental data published in ChEMBL document CHEMBL4823307, “Discovery of benzimidazole derivatives as potent and selective aldehyde dehydrogenase 1A1 (ALDH1A1) inhibitors with glucose consumption improving activity” (Bioorg Med Chem, 2021).

target: T1, Aldehyde dehydrogenase 1A1 (Homo sapiens) (UniProt P00352); assay: Inhibition of human ALDH1A1 assessed as NADH formation using propionaldehyde as substrate at 10 uM by spectrophotometry
T1 sequence (whole entry): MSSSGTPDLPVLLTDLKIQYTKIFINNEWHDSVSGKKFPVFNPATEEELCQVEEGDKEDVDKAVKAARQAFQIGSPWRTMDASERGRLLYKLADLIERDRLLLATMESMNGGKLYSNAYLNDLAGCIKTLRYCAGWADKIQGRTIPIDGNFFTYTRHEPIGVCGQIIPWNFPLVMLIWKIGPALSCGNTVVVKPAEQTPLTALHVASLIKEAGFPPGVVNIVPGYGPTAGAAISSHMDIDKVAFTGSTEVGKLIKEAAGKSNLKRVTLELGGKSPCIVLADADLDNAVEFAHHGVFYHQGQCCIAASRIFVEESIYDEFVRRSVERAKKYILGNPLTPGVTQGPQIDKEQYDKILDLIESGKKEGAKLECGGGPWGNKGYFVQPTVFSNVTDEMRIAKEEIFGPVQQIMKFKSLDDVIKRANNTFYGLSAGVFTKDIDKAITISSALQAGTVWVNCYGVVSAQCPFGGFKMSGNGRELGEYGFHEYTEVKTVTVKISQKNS

Compared with `O=C(C1CC1)N1CCN(Cc2nc3ccccc3n2CC2CCCC2)CC1`, `O=C(C1CC1)N1CCN(Cc2nc3ccccc3n2CC2CC2)CC1` is lower in inhibition: 44.5% for the first, 21.2% for the second.

Compared with `Cc1cccc(Cn2c(CN3CCN(C(=O)c4cccnc4)CC3)nc3ccccc32)c1`, `Cc1cccc(Cn2c(CN3CCN(C(=O)c4ccncc4)CC3)nc3ccccc32)c1` is lower in inhibition: 24.5% for the first, 20.6% for the second.

Compared with `Cc1cccc(Cn2c(CN3CCN(C(=O)c4cccs4)CC3)nc3ccccc32)c1`, `Cc1cccc(Cn2c(CN3CCN(C(=O)c4ccco4)CC3)nc3ccccc32)c1` is higher in inhibition: 60.8% for the first, 73.2% for the second.

Compared with `Cc1cccc(Cn2c(CN3CCN(C(=O)c4ccc(C#N)cc4)CC3)nc3ccccc32)c1`, `Cc1ccc(C(=O)N2CCN(Cc3nc4ccccc4n3Cc3cccc(C)c3)CC2)cc1` is higher in inhibition: 20.8% for the first, 64.9% for the second.

Compared with `O=C(C1CC1)N1CCN(Cc2nc3ccccc3n2Cc2ccc(Cl)cc2)CC1`, `Cc1ccc(Cn2c(CN3CCN(C(=O)C4CC4)CC3)nc3ccccc32)cc1` is lower in inhibition: 56.6% for the first, 51.5% for the second.

First: Cc1cccc(Cn2c(CN3CCN(C(=O)C4CCCC4)CC3)nc3ccccc32)c1
Second: Cc1cccc(Cn2c(CN3CCN(C(=O)C4CCCCC4)CC3)nc3ccccc32)c1
The inhibition of the first is higher: 67.5% for the first, 31.9% for the second.

Going from `CC(C)CCn1c(NC2CCN(C(=O)C3CC3)CC2)nc2ccccc21` to `CC(C)CCn1c(OC2CCN(C(=O)C3CC3)CC2)nc2ccccc21`, the inhibition rises from 10.8% to 56.4%.

Compared with `Cc1cccc(Cn2c(CN3CCN(C(=O)c4ccc(Br)cc4)CC3)nc3ccccc32)c1`, `Cc1cccc(Cn2c(CN3CCN(C(=O)c4ccc(F)cc4)CC3)nc3ccccc32)c1` is higher in inhibition: 25.8% for the first, 27.1% for the second.

Going from `Cc1cccc(Cn2c(CN3CCN(C(=O)c4ccccc4)CC3)nc3ccccc32)c1` to `Cc1cccc(Cn2c(CN3CCN(C(=O)c4ccc(Cl)cc4)CC3)nc3ccccc32)c1`, the inhibition falls from 60.9% to 23.2%.

Compared with `O=C(C1CC1)N1CCN(Cc2nc3ccccc3n2Cc2cccc(F)c2)CC1`, `COc1cccc(Cn2c(CN3CCN(C(=O)C4CC4)CC3)nc3ccccc32)c1` is higher in inhibition: 27.1% for the first, 44.4% for the second.

Going from `CC(=O)N1CCN(Cc2nc3ccccc3n2Cc2cccc(C)c2)CC1` to `CCCC(=O)N1CCN(Cc2nc3ccccc3n2Cc2cccc(C)c2)CC1`, the inhibition rises from 70.3% to 79%.

Going from `CC(C)CCn1c(OC2CCN(C(=O)c3ccco3)CC2)nc2ccccc21` to `CC(C)CCn1c(CN2CCN(C(=O)c3ccco3)CC2)nc2ccccc21`, the inhibition rises from 30.8% to 42.1%.

Compared with `Cc1cccc(Cn2c(CN3CCN(C(=O)c4ccc(C(F)(F)F)cc4)CC3)nc3ccccc32)c1`, `COc1ccc(C(=O)N2CCN(Cc3nc4ccccc4n3Cc3cccc(C)c3)CC2)cc1` is higher in inhibition: 22.9% for the first, 55.5% for the second.

Going from `CC(C)CCn1c(CN2CCN(C(=O)C3CC3)CC2)nc2ccccc21` to `CC(C)Cn1c(CN2CCN(C(=O)C3CC3)CC2)nc2ccccc21`, the inhibition falls from 70% to 13.1%.

Compared with `Cc1cccc(Cn2c(CN3CCN(C(=O)CC(C)C)CC3)nc3ccccc32)c1`, `Cc1cccc(Cn2c(CN3CCN(C(=O)c4ccc(C(C)C)cc4)CC3)nc3ccccc32)c1` is lower in inhibition: 71.4% for the first, 67.6% for the second.

Going from `CCCCn1c(CN2CCN(C(=O)C3CC3)CC2)nc2ccccc21` to `Cc1ccccc1Cn1c(CN2CCN(C(=O)C3CC3)CC2)nc2ccccc21`, the inhibition rises from 18.2% to 29.1%.

Going from `O=C(C1CC1)N1CCN(Cc2nc3ccccc3n2Cc2ccccc2)CC1` to `O=C(C1CC1)N1CCN(Cc2nc3ccccc3n2Cc2ccccc2F)CC1`, the inhibition rises from 23.9% to 40.7%.

Going from `CCc1ccc(C(=O)N2CCN(Cc3nc4ccccc4n3Cc3cccc(C)c3)CC2)cc1` to `Cc1cccc(Cn2c(CN3CCN(C(=O)c4ccc([N+](=O)[O-])cc4)CC3)nc3ccccc32)c1`, the inhibition falls from 67% to 24.3%.

Going from `Cc1cccc(Cn2c(OC3CCN(C(=O)C4CC4)CC3)nc3ccccc32)c1` to `Cc1cccc(Cn2c(NC3CCN(C(=O)C4CC4)CC3)nc3ccccc32)c1`, the inhibition falls from 80.6% to 49.1%.

Going from `O=C(C1CC1)N1CCN(Cc2nc3ccccc3n2Cc2ccccc2C(F)(F)F)CC1` to `Cc1cccc(Cn2c(NC3CCN(C(=O)c4ccco4)CC3)nc3ccccc32)c1`, the inhibition falls from 56.3% to 27.9%.

With `Cc1cccc(Cn2c(OC3CCN(C(=O)c4ccco4)CC3)nc3ccccc32)c1` the inhibition was 68.3%.
